# Experimental data from article PMC2810339, “Allosteric Regulation of HIV-1 Reverse Transcriptase by ATP for Nucleotide Selection” (PLoS ONE, 2010).
# Tests used:
# Format in all cases: biochemical, HIV-1
# [1] = tested on: multi-NRTI-resistant RT (ERT-mt6), purified p51/p66 heterodimer; assay: RNA-dependent DNA polymerase activity, dTTP incorporation into poly (rA)·p(dT)12-18, steady-state kinetics; conditions: for fold increase in IC50 of AZTTP compared to AZTTP without the compound: in the presence of 5 mM of the indicated compound; for fold increase in Ki^NRTI value compared to without ATP: at 3 mM of ATP
# Description: (§1) RNA-dependent DNA polymerase activity was measured using [α-^32P]dTTP and poly(rA)/poly(dT)12-18 as described previously. […] These experiments were performed in duplicate and repeated two to six times.
# (§2) The averages of the experimental data were fit by a nonlinear regression method using the program Igor Pro (WaveMetrics, USA). The kinetics parameters were determined by the Michaelis-Menten equation: [drawing 1] (1) where [S] is the substrate concentration; Km^app is the apparent Michaelis-Menten constant; and Vmax^app is the apparent maximal rate attained when the enzyme active sites are saturated by substrate.
# (§3) Using this model, the enzyme kinetic parameters were calculated using Equations 2–5.
# (§4) Vmax^app and Km^app are defined as [drawing 2] (2) and [drawing 3] (3) respectively, where Km is the Michaelis-Menten constant; [E] is the enzyme concentration; [I] is the inhibitor concentration; Ki and Ki′ are the inhibition constants for the enzyme and the complex of the enzyme with substrate; and kcat^app is the apparent turnover number: [drawing 4] (4) where kcat is the turnover number.
# (§5) The kcat^app and Km^app that can be derived from the model (Figure 2C) are [drawing 5] (5) and [drawing 6] (6) where Ki^ATP is the dissociation constant of ATP; Ki^AZTTP is the dissociation constant of AZTTP; [I^ATP] is the ATP concentration; and [I^AZTTP] is the AZTTP concentration.
# [2] = tested on: NRTI-sensitive RT (93JP-NH1), purified p51/p66 heterodimer; assay: as above; conditions: for fold increase in Ki^NRTI value compared to without ATP: at 3 mM of ATP
# Description: as §1, §2, §3, §4, §5
# [3] = tested on: D113A/N mutants of ERT-mt6 RT; assay: RNA-dependent DNA polymerase activity of site-directed RT mutants from ERT-mt6; conditions: D113A/N versus ERT-mt6 RT; 5 mM ATP (Figure S4C)
# Description: The purified RTs were dissolved in the RT stock buffer (50 mM Tris-HCl pH 7.5, 75 mM KCl, 5 mM MgCl2, 2 mM DTT, 0.05% NP40, and 50% glycerol)[32], [33] and kept at −30°C until use. RNA-dependent DNA polymerase activity was measured using [α-^32P]dTTP and poly(rA)/poly(dT)12-18 as described previously. For the RT reaction in the presence of ATP, RT activities were measured in 100 µl of RT reaction cocktail consisting of 50 mM Tris-HCl pH 7.5, 75 mM KCl, 5 mM MgCl2, 2 mM DTT, 0.05% NP40, and 50% glycerol containing RT (1–10 nM), dTTP (0.2–18 µM), and ATP (0–4 mM). For the RT reaction in the presence of ATP and NRTI, RT activities were measured in 100 µl of the RT reaction cocktail containing RT (1–10 nM), dTTP (0.2–18 µM), ATP (0–5 mM), and AZTTP or d4TTP (0–1 µM). These experiments were performed in duplicate and repeated two to six times. […]
# Supplementary file pone.0008867.s004.tif: Figure S4 Data on RT mutants from the ERT-mt6 RT. […] RNA-dependent DNA polymerase activity of the purified RTs (20 nM) was measured using a [α-^32P]dTTP and poly (rA)⋅p(dT)12-18 system. […] RNA-dependent DNA polymerase activity of the purified mutant RTs was measured using various concentrations of [α-^32P]dTTP and poly (rA)⋅p(dT)12-18 in the presence of ATP. […]
# [4] = 0-4 mM ATP, Lineweaver-Burk double-reciprocal plots
# [5] = ATP binding to RT-template-primer complex (RT complex 1)
# [6] = ATP binding to RT-template-primer-dTTP complex (RT complex 2)
# [7] = dTTP incorporation, absence of ATP
molecule,measurement,setting,value
"Nc1ncnc2c1ncn2[C@@H]1O[C@H](COP(=O)(O)OP(=O)(O)NP(=O)(O)O)[C@@H](O)[C@H]1O [AMP-PNP, Adenosine 5′-(β, γ-imido) triphosphate]",fold increase in IC50 of AZTTP compared to AZTTP without the compound,[1],approximately 150 fold
Nc1ncnc2c1ncn2[C@@H]1O[C@H](COP(=O)(O)OP(=O)(O)OP(=O)(O)O)[C@@H](O)[C@H]1O [ATP],mode of inhibition of dTTP incorporation,[1]; [4],mixed noncompetitive inhibition
same,Ki,[1]; [5],2.8 ± 1.3 mM
same,Ki′^ATP,[1]; [6],1.1 ± 0.4 mM
same,fold increase in IC50 of AZTTP compared to AZTTP without the compound,[1],approximately 350 fold
same,mode of inhibition of dTTP incorporation,[2]; [4],mixed noncompetitive inhibition
same,Ki,[2]; [5],2.9 ± 1.3 mM
same,Ki′^ATP,[2]; [6],1.2 ± 0.5 mM
"Cc1cn([C@H]2C[C@H](N=[N+]=[N-])[C@@H](COP(=O)(O)OP(=O)(O)OP(=O)(O)O)O2)c(=O)[nH]c1=O [AZTTP, 3′-Azido 3′-deoxythymidine 5′-triphosphate]",fold increase in Ki^NRTI value compared to without ATP,[1],about 30 fold
same,fold increase in Ki^NRTI value compared to without ATP,[2],about 6.8 fold
same,fold reduction in the IC50 of AZTTP,[3],4- to 5 fold
"Cc1cn([C@H]2C=C[C@@H](COP(=O)(O)OP(=O)(O)OP(=O)(O)O)O2)c(=O)[nH]c1=O [d4TTP, 3′-deoxy-2′, and 3′-didehydrothymidine 5′-triphosphate]",fold increase in Ki^NRTI value compared to without ATP,[1],~8.5 fold
same,fold increase in Ki^NRTI value compared to without ATP,[2],~0.6 fold
Cc1cn([C@H]2C[C@H](O)[C@@H](COP(=O)(O)OP(=O)(O)OP(=O)(O)O)O2)c(=O)[nH]c1=O [dTTP],kcat,[1]; [7],0.49 ± 0.01 s⁻¹
same,Km,"[1]; substrate dTTP, absence of ATP",13.8 ± 0.5 µM
same,kcat,[2]; [7],1.04 ± 0.01 s⁻¹
same,Km,"[2]; substrate dTTP, absence of ATP",4 ± 0.1 µM
NaPO4,fold increase in IC50 of AZTTP compared to AZTTP without the compound,[1],little effect
same,fold increase in IC50 of AZTTP compared to AZTTP without the compound,[2]; in the presence of 5 mM of the indicated compound,little effect
